Experimental data: patent US20130143872A1, “INJECTABLE FORMULATION OF A REVERSE TRANSCRIPTASE INHIBITOR FOR THE TREATMENT CANCER” (priority 2010, published 2013)
In brackets after ≈: the same amount, converted by molar mass.

What was measured:
[1] = cited from earlier work
[2] = Recrystallisation of nevirapine from water-ethanol co-solvent systems: crystal form and crystal habit; format: physicochemical
[3] = EtOH:H2O 90:0 ml, water content 0 % v/v
[4] = EtOH:H2O 90:4.7 ml, water content 5 % v/v
[5] = EtOH:H2O 90:22.5 ml, water content 20 % v/v
[6] = EtOH:H2O 90:38.6 ml, water content 30 % v/v
[7] = EtOH:H2O 90:60 ml, water content 40 % v/v
[8] = EtOH:H2O 90:90 ml, water content 50 % v/v
[9] = EtOH:H2O 90:135 ml, water content 60 % v/v
[10] = EtOH:H2O 90:210 ml, water content 70 % v/v
[11] = EtOH:H2O 90:360 ml, water content 80 % v/v

Nc1ncnc2c1ncn2CCOCP(=O)(O)O [Adefonir]
solubility in water [1]: 400 µg/mL (≈ 1460 µM)

Cc1ccnc2c1NC(=O)c1cccnc1N2C1CC1 [nevirapine]
Crystal Habit ([2]; EtOH:H2O 90:0 ml (so in the source), water content 10 % v/v): Very small tabular | Crystal Habit [2, 3]: Tabular crystals | Nevirapine Form Obtained [2, 3]: Hemi-Ethanolate | Crystal Habit [2, 4]: Smaller tabular | Nevirapine Form Obtained [2, 4]: Hemi-Ethanolate | Crystal Habit [2, 5]: Disorganized | Nevirapine Form Obtained [2, 5]: Hemi-Hydrate | Crystal Habit [2, 6]: Disorganized | Nevirapine Form Obtained [2, 6]: Hemi-Hydrate | Crystal Habit [2, 7]: Columnar clusters | Nevirapine Form Obtained [2, 7]: Hemi-Hydrate | Crystal Habit [2, 8]: Platy clusters | Nevirapine Form Obtained [2, 8]: Hemi-Hydrate | Crystal Habit [2, 9]: Platy crystals | Nevirapine Form Obtained [2, 9]: Hemi-Hydrate | Crystal Habit [2, 10]: Platy crystals | Nevirapine Form Obtained [2, 10]: Hemi-Hydrate | Crystal Habit [2, 11]: Very small bladed | Nevirapine Form Obtained [2, 11]: Anhydrous
